Assay results: PubChem BioAssay AID2060888 (Molecular Pharmacology Branch, DTP, NCI, 2025)

Tested on: 695427-040-R-J1-PDC complex spheroid viability
Test: Anticancer human tumor 695427-040-R-J1-PDC patient-derived colon adenocarcinoma cell line growth inhibition [RAS]
Conditions: for IC50: curve of first compound; for viability, T/C: stronger effect = lower value
Outline: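 Tumour cells grown as complex spheroids with HUVEC endothelial cells and mesenchymal stem cells, treated with RAS pathway inhibitor combinations. Each agent spans half-log steps from near clinical Cmax, or 10 microM where Cmax is unknown.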

[1] = second compound 0.000949 µM, first compound 0.00316 µM
[2] = second compound 0.000949 µM, first compound 0.01 µM
[3] = second compound 0.000949 µM, first compound 0.0316 µM
[4] = second compound 0.000949 µM, first compound 0.1 µM
[5] = second compound 0.003 µM, first compound 0.00316 µM
[6] = second compound 0.003 µM, first compound 0.01 µM
[7] = second compound 0.003 µM, first compound 0.0316 µM
[8] = second compound 0.003 µM, first compound 0.1 µM
[9] = second compound 0.00949 µM, first compound 0.00316 µM
[10] = second compound 0.00949 µM, first compound 0.01 µM
[11] = second compound 0.00949 µM, first compound 0.0316 µM
[12] = second compound 0.00949 µM, first compound 0.1 µM
[13] = second compound 0.03 µM, first compound 0.00316 µM
[14] = second compound 0.03 µM, first compound 0.01 µM
[15] = second compound 0.03 µM, first compound 0.0316 µM
[16] = second compound 0.03 µM, first compound 0.1 µM
[17] = second compound 0.0949 µM, first compound 0.00316 µM
[18] = second compound 0.0949 µM, first compound 0.01 µM
[19] = second compound 0.0949 µM, first compound 0.0316 µM
[20] = second compound 0.0949 µM, first compound 0.1 µM
[21] = second compound 0.3 µM, first compound 0.00316 µM
[22] = second compound 0.3 µM, first compound 0.01 µM
[23] = second compound 0.3 µM, first compound 0.0316 µM
[24] = second compound 0.3 µM, first compound 0.1 µM
[25] = second compound 0.000949 µM, first compound 0.316 µM
[26] = second compound 0.000949 µM, first compound 1 µM
[27] = second compound 0.000949 µM, first compound 3.16 µM
[28] = second compound 0.000949 µM, first compound 10 µM
[29] = second compound 0.003 µM, first compound 0.316 µM
[30] = second compound 0.003 µM, first compound 1 µM
[31] = second compound 0.003 µM, first compound 3.16 µM
[32] = second compound 0.003 µM, first compound 10 µM
[33] = second compound 0.00949 µM, first compound 0.316 µM
[34] = second compound 0.00949 µM, first compound 1 µM
[35] = second compound 0.00949 µM, first compound 3.16 µM
[36] = second compound 0.00949 µM, first compound 10 µM
[37] = second compound 0.03 µM, first compound 0.316 µM
[38] = second compound 0.03 µM, first compound 1 µM
[39] = second compound 0.03 µM, first compound 3.16 µM
[40] = second compound 0.03 µM, first compound 10 µM
[41] = second compound 0.0949 µM, first compound 0.316 µM
[42] = second compound 0.0949 µM, first compound 1 µM
[43] = second compound 0.0949 µM, first compound 3.16 µM
[44] = second compound 0.0949 µM, first compound 10 µM
[45] = second compound 0.3 µM, first compound 0.316 µM
[46] = second compound 0.3 µM, first compound 1 µM
[47] = second compound 0.3 µM, first compound 3.16 µM
[48] = second compound 0.3 µM, first compound 10 µM
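Further: viability read after seven days of drug exposure.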
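Wherever viability, T/C is given: 100% = DMSO vehicle control viability.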

CC(C)n1nc(-c2ccc3oc(N)nc3c2)c2c(N)ncnc21 + CCn1c(-c2cc(N3CCN(C)CC3)cnc2C(C)OC)c2c3cc(ccc31)-c1csc(n1)CC(NC(=O)C1CC1C)C(=O)N1CCCC(N1)C(=O)OCC(C)(C)C2
IC50 (second compound 0.000949 µM): 71.9 nM | IC50 (second compound 0.003 µM): > 100 nM | IC50 (second compound 0.00949 µM): 34.2 nM | IC50 (second compound 0.03 µM): 4.03 nM | IC50 (second compound 0.0949 µM): < 0.316 nM | IC50 (second compound 0.3 µM): < 0.316 nM | viability, T/C (second compound 0.000949 µM, first compound 0.000316 µM): 100% | viability, T/C (second compound 0.000949 µM, first compound 0.001 µM): 86.4% | viability, T/C [1]: 80.3% | viability, T/C [2]: 81.2% | viability, T/C [3]: 68.6% | viability, T/C [4]: 42% | viability, T/C (second compound 0.003 µM, first compound 0.000316 µM): 98.5% | viability, T/C (second compound 0.003 µM, first compound 0.001 µM): 84.8% | viability, T/C [5]: 71.8% | viability, T/C [6]: 68.1% | viability, T/C [7]: 66.5% | viability, T/C [8]: 51.1% | viability, T/C (second compound 0.00949 µM, first compound 0.000316 µM): 93.3% | viability, T/C (second compound 0.00949 µM, first compound 0.001 µM): 68.5% | viability, T/C [9]: 70% | viability, T/C [10]: 59.1% | viability, T/C [11]: 46.4% | viability, T/C [12]: 46.8% | viability, T/C (second compound 0.03 µM, first compound 0.000316 µM): 74.3% | viability, T/C (second compound 0.03 µM, first compound 0.001 µM): 45.1% | viability, T/C [13]: 55.8% | viability, T/C [14]: 48.6% | viability, T/C [15]: 39.2% | viability, T/C [16]: 28.7% | viability, T/C (second compound 0.0949 µM, first compound 0.000316 µM): 47.6% | viability, T/C (second compound 0.0949 µM, first compound 0.001 µM): 38.6% | viability, T/C [17]: 35.4% | viability, T/C [18]: 32.8% | viability, T/C [19]: 30% | viability, T/C [20]: 21.3% | viability, T/C (second compound 0.3 µM, first compound 0.000316 µM): 41% | viability, T/C (second compound 0.3 µM, first compound 0.001 µM): 34.8% | viability, T/C [21]: 27.3% | viability, T/C [22]: 28.2% | viability, T/C [23]: 22.6% | viability, T/C [24]: 15.7%

CC1(O)CCCC1n1c(=O)c(C(F)F)cc2cnc(NC3CCN(S(C)(=O)=O)CC3)nc21 (stereo not drawn) + CCn1c(-c2cc(N3CCN(C)CC3)cnc2C(C)OC)c2c3cc(ccc31)-c1csc(n1)CC(NC(=O)C1CC1C)C(=O)N1CCCC(N1)C(=O)OCC(C)(C)C2
IC50 (second compound 0.000949 µM): > 10000 nM | IC50 (second compound 0.003 µM): > 10000 nM | IC50 (second compound 0.00949 µM): > 10000 nM | IC50 (second compound 0.03 µM): 4610 nM | IC50 (second compound 0.0949 µM): < 31.6 nM | IC50 (second compound 0.3 µM): < 31.6 nM | viability, T/C [3]: 112% | viability, T/C [4]: 74.6% | viability, T/C [25]: 93.8% | viability, T/C [26]: 105% | viability, T/C [27]: 114% | viability, T/C [28]: 74.5% | viability, T/C [7]: 87.3% | viability, T/C [8]: 92.8% | viability, T/C [29]: 91.8% | viability, T/C [30]: 92.7% | viability, T/C [31]: 109% | viability, T/C [32]: 71% | viability, T/C [11]: 95.7% | viability, T/C [12]: 80.8% | viability, T/C [33]: 85.2% | viability, T/C [34]: 78.3% | viability, T/C [35]: 81.8% | viability, T/C [36]: 52% | viability, T/C [15]: 62.4% | viability, T/C [16]: 71.5% | viability, T/C [37]: 59.1% | viability, T/C [38]: 57.1% | viability, T/C [39]: 59.8% | viability, T/C [40]: 32.7% | viability, T/C [19]: 44.2% | viability, T/C [20]: 42.1% | viability, T/C [41]: 50.3% | viability, T/C [42]: 50.8% | viability, T/C [43]: 50.9% | viability, T/C [44]: 25.6% | viability, T/C [23]: 40.5% | viability, T/C [24]: 42% | viability, T/C [45]: 41.2% | viability, T/C [46]: 36.5% | viability, T/C [47]: 44.2% | viability, T/C [48]: 25.2%

CCN1CCN(Cc2ccc(Nc3ncc(F)c(-c4cc(F)c5nc(C)n(C(C)C)c5c4)n3)nc2)CC1 + CCn1c(-c2cc(N3CCN(C)CC3)cnc2C(C)OC)c2c3cc(ccc31)-c1csc(n1)CC(NC(=O)C1CC1C)C(=O)N1CCCC(N1)C(=O)OCC(C)(C)C2
IC50 (second compound 0.000949 µM): > 1000 nM | IC50 (second compound 0.003 µM): > 1000 nM | IC50 (second compound 0.00949 µM): > 1000 nM | IC50 (second compound 0.03 µM): 75.3 nM | IC50 (second compound 0.0949 µM): < 3.16 nM | IC50 (second compound 0.3 µM): < 3.16 nM | viability, T/C [1]: 94.2% | viability, T/C [2]: 87.4% | viability, T/C [3]: 95.4% | viability, T/C [4]: 94.4% | viability, T/C [25]: 92.8% | viability, T/C [26]: 59.9% | viability, T/C [5]: 97.9% | viability, T/C [6]: 105% | viability, T/C [7]: 95.7% | viability, T/C [8]: 85.2% | viability, T/C [29]: 83.3% | viability, T/C [30]: 59.2% | viability, T/C [9]: 105% | viability, T/C [10]: 74.5% | viability, T/C [11]: 84.2% | viability, T/C [12]: 67.2% | viability, T/C [33]: 67.8% | viability, T/C [34]: 49.6% | viability, T/C [13]: 65% | viability, T/C [14]: 62.9% | viability, T/C [15]: 45.4% | viability, T/C [16]: 53.3% | viability, T/C [37]: 47.6% | viability, T/C [38]: 39.7% | viability, T/C [17]: 51.9% | viability, T/C [18]: 41.2% | viability, T/C [19]: 50.4% | viability, T/C [20]: 37% | viability, T/C [41]: 44.4% | viability, T/C [42]: 36.5% | viability, T/C [21]: 37.4% | viability, T/C [22]: 41.4% | viability, T/C [23]: 38.6% | viability, T/C [24]: 38.8% | viability, T/C [45]: 42.6% | viability, T/C [46]: 41.9%

C[C@@H](NC(=O)c1ncnc(N)c1Cl)c1ncc(C(=O)Nc2cc(C(F)(F)F)c(Cl)cn2)s1 + CCn1c(-c2cc(N3CCN(C)CC3)cnc2C(C)OC)c2c3cc(ccc31)-c1csc(n1)CC(NC(=O)C1CC1C)C(=O)N1CCCC(N1)C(=O)OCC(C)(C)C2
IC50 (second compound 0.000949 µM): > 10000 nM | IC50 (second compound 0.003 µM): > 10000 nM | IC50 (second compound 0.00949 µM): > 10000 nM | IC50 (second compound 0.03 µM): > 10000 nM | IC50 (second compound 0.0949 µM): > 10000 nM | IC50 (second compound 0.3 µM): < 31.6 nM | viability, T/C [3]: 77.4% | viability, T/C [4]: 94% | viability, T/C [25]: 84.1% | viability, T/C [26]: 87.6% | viability, T/C [27]: 108% | viability, T/C [28]: 78.5% | viability, T/C [7]: 117% | viability, T/C [8]: 91% | viability, T/C [29]: 99.6% | viability, T/C [30]: 85.9% | viability, T/C [31]: 117% | viability, T/C [32]: 70.1% | viability, T/C [11]: 95.3% | viability, T/C [12]: 83.4% | viability, T/C [33]: 83.6% | viability, T/C [34]: 84.4% | viability, T/C [35]: 85.6% | viability, T/C [36]: 53.1% | viability, T/C [15]: 65.8% | viability, T/C [16]: 71% | viability, T/C [37]: 76.3% | viability, T/C [38]: 72.4% | viability, T/C [39]: 81.3% | viability, T/C [40]: 55.6% | viability, T/C [19]: 56.2% | viability, T/C [20]: 58.2% | viability, T/C [41]: 58.4% | viability, T/C [42]: 48.7% | viability, T/C [43]: 72.4% | viability, T/C [44]: 51.2% | viability, T/C [23]: 36.4% | viability, T/C [24]: 44.2% | viability, T/C [45]: 44.4% | viability, T/C [46]: 45.4% | viability, T/C [47]: 50.1% | viability, T/C [48]: 33%
